US7202258B2, “α- and β-amino acid hydroxyethylamino sulfamic acid derivatives useful as retroviral protease inhibitors” (G.D. Searle & Co., priority 1992, dated 2007)
Where two headings read alike, the source gives them in different places.

Assays:
HIV-1 = experiment: microbe, parasite or virus in culture; settings: Human immunodeficiency virus 1, CCRF-CEM, 168 h, read-out: EC50 (nm)
Protocol: Assays were performed in 96-well tissue culture plates. CEM cells, a CD4^+ cell line, were grown in RPMI-1640 medium (Gibco) supplemented with a 10% fetal calf serum and were then treated with polybrene (2 μg/ml). An 80 μl volume of medium containing 1×10^4 cells was dispensed into each well of the tissue culture plate, no each well was added a 100 μl volume of test compound dissolved in tissue culture medium (or medium without test compound as a control) to achieve the desires final concentration and the cells were incubated at 37° C. for 1 hour. […] HIV-1 was diluted in culture medium to a concentration of 5×10^4 TCID50 per ml (TCID50=the dose of virus that infects 50% of cells in tissue culture), and a 20 μL volume of the virus sample (containing 1000 TCID50 of virus) was added to wells containing test compound and to wells containing only medium (infected control cells). Several wells received culture medium without virus (uninfected control cells). Likewise, the intrinsic toxicity of the test compound was determined by adding medium without virus to several wells containing test compound.
In experiments 2 and 4 the final concentrations of test compounds were 1, 10, 100 and 500 μg/ml. Either azidothymidine (AZT) or dideoxyinosine (ddI) was included as a positive drug control. […] DMSO was added to all control wells at an appropriate concentration.
Following the addition of virus, cells were incubated at 37° C. in a humidified, 5% CO2 atmosphere for 7 days. Test compounds could be added on days 0, 2 and 5 if desired. On day 7, post-infection, the cells in each well were resuspended and a 100 μl sample of each cell suspension was removed for assay. A 20 μL volume of a 5 mg/ml solution of 3-(4,5-dimethylthiazol-2-yl)-2,5-diphenyltetrazolium bromide (MTT) was added to each 100L cell suspension, and the cells were incubated for 4 hours at 27° C. in a 5% CO2 environment. […] To each sample was added 100 μl of 10% sodium dodecylsulfate in 0.01 N HCl to lyse the cells, and samples were incubated overnight. The absorbance at 590 nm was determined for each sample using a Molecular Devices microplate reader. Absorbance values for each set of wells is compared to assess viral control infection, uninfected control cell response as well as test compound by cytotoxicity and antiviral efficacy.

HIV protease = molecular target: T1, HIV protease (Human immunodeficiency virus type 1 group M subtype B, UniProt P04585); experiment: HIV protease enzyme assay (fluorescence, substrate 2-Ile-Nle-Phe(p-NO2)-Gln-ArgNH2); format: biochemical
T1 construct: HIV protease is diluted in the assay buffer to a final enzyme concentration of 12.3 nanomolar, based on a molecular weight of 10,780
From the text: The compounds of the present invention are effective HIV protease inhibitors. Utilizing an enzyme assay as described below, the compounds set forth in the examples herein disclosed inhibited the HIV enzyme. The preferred compounds of the present invention and their calculated IC50 (inhibiting concentration 50%, i.e., the concentration at which the inhibitor compound reduces enzyme activity by 50%) values are shown in Table 17. The enzyme method is described below. The substrate is 2-Ile-Nle-Phe(p-NO2)-Gln-ArgNH2. The positive control is MVT-101 (Miller, M. et al, Science, 246, 1149 (1989)]The assay conditions are as follows: • Assay buffer: 20 mM sodium phosphate, […] • 20% glycerol • 1 mM EDTA • 1 mM DTT • 0.1% CHAPS
The above described substrate is dissolved in DMSO, then diluted 10 fold in assay buffer. Final substrate concentration in the assay is 80 μM.
HIV protease is diluted in the assay buffer to a final enzyme concentration of 12.3 nanomolar, based on a molecular weight of 10,780.
The final concentration of DMSO is 14% and the final concentration of glycerol is 18%. The test compound is dissolved in DMSO and diluted in DMSO to 10× the test concentration; 10 μl of the enzyme preparation is added, the materials mixed and then the mixture is incubated at ambient temperature for 15 minutes. The enzyme reaction is initiated by the addition of 40 μl of substrate. The increase in fluorescence is monitored at 4 time points (0, 8, 16 and 24 minutes) at ambient temperature. Each assay is carried out in duplicate wells.

CEM cells = experiment: Intrinsic toxicity of test compound in uninfected CEM cells (MTT); format: cell-based; settings: human, 7 days
From the text: Methods, 20, 309–321 (1988). […] A Frozen culture c.

[1] = Table 18, compounds of Table 1C, read-out: IC50 or % Inhibition: IC50

Structure (SMILES)	EC50 (HIV-1)	IC50 (HIV protease)	TD50 (nm) (CEM cells)	IC50 (HIV protease; Table 17, read-out: IC50)	IC50 (HIV protease; [1])
CCCCNS(=O)(=O)N(CC(C)C)C[C@@H](O)[C@H](Cc1ccccc1)NC(=O)[C@@H](NC(=O)CN(C)C)C(C)(C)C [Entry 1]	167 nM	40 nM	56,000 nM		
CCCCNS(=O)(=O)N(CC(C)C)C[C@@H](O)[C@H](Cc1ccccc1)NC(=O)[C@H](CC(N)=O)NC(=O)c1ccc2ccccc2n1 [Entry 2]	23 nM	5 nM	65,000 nM		
CC(C)CN(C[C@@H](O)[C@H](Cc1ccccc1)NC(=O)[C@H](CC(N)=O)NC(=O)c1ccc2ccccc2n1)S(=O)(=O)N1CCN(C)CC1 [Entry 3]	42 nM	3 nM	28,000 nM		
CC(C)CN(C[C@@H](O)[C@H](Cc1ccccc1)NC(=O)[C@H](CC(N)=O)NC(=O)c1ccc2ccccc2n1)S(=O)(=O)NC(C)(C)C [Entry 4]	< 15 nM	2 nM	39,000 nM		
COc1ccc(COC(=O)NC[C@@H](C)C(=O)N[C@@H](Cc2ccccc2)[C@H](O)CN(CC(C)C)S(=O)(=O)NC(C)(C)C)cc1 [Entry 5]				13 nM	
CC(C)CN(C[C@@H](O)[C@H](Cc1ccccc1)NC(=O)OCc1ccccc1)S(=O)(=O)N1CCCCC1 [G]					66 nM
CC(C)(C)NS(=O)(=O)N(CC1CCCCC1)C[C@@H](O)[C@H](Cc1ccccc1)NC(=O)OCc1ccccc1 [I]					1700 nM
COC(=O)C(C)(C)NS(=O)(=O)N(CC(C)C)C[C@@H](O)[C@H](Cc1ccccc1)NC(=O)OCc1ccccc1 [J]					2690 nM
